The source of these data is patent US9820483B2, “Microbial composition” (Rohm and Haas Company, priority 2011, dated 2017).

Each structure is given as a SMILES string.

For this test, the system named is S. aureus ATCC 6538. The test can be described thus: Synergy of terpinyl alcohols with phenolic compounds in water, 15 seconds contact, plate count log reduction. The class given is cell-based, Staphylococcus aureus. As to conditions: 0.1% alone. On the procedure:
Liquid actives were used directly. Solid actives were dissolved in alcohol and a 50% stock was made.
The culture was grown overnight in Tryptone soya agar. It was suspended in saline (0.85% NaCl) to a con. of 1.5×10^8-5×10^8 cells/ml
To 9 ml water the actives were added to give the desired concentration. 1 ml of the culture was added and mixed. After 15 seconds contact 1 ml aliquot was removed and added to a neutraliser and kept for 5 minutes. A control of untreated cells was similarly processed. It was then diluted and plated. The plates were incubated at 37° C. for 24 hours. The colonies on the plates were counted. The counts were converted to log10. The log. no. of survivors was determined and log reduction calculated.

For `CC=Cc1ccccc1O` [2-propenylphenol], the “Log reduction S. aureus ATCC 6538” value is given as 1.92.
